According to US20120142705A1, “ISATIN AND OXINDOLE COMPOUNDS” (priority 2010, published 2012):

target: T1, Recombinant human liver GK1 (GST-GK) (Homo sapiens, UniProt P35557); assay: In vitro glucokinase activity, G6PDH-coupled spectrophotometric assay; type: biochemical; details: 5 mM D-glucose, 30° C., pH 7.1
T1 construct: made in house; host or cells: E. coli
T1 sequence (P35557 1-466 isoform P35557-2): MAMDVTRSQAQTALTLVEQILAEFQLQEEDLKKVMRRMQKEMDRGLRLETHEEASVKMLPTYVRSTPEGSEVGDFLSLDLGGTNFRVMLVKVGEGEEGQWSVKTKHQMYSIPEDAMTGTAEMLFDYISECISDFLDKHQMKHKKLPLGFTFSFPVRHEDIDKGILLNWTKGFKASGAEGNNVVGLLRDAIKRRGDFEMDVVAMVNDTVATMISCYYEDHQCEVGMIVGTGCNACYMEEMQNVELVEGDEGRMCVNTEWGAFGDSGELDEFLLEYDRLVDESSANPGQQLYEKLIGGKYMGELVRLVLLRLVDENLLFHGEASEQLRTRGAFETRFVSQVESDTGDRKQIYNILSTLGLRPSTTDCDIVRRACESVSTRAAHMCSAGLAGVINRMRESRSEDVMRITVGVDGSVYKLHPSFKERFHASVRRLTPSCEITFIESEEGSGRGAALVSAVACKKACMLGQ
Protocol: Glucokinase In Vitro Assay Protocol: Glucokinase (GK) was assayed by coupling the production of glucose-6-phosphate to the generation of NADH with glucose-6-phosphate dehydrogenase (G6PDH, 0.75-1 kunits/mg; Boehringer Mannheim, Indianapolis, Ind.) from Leuconostoc mesenteroides as the coupling enzyme (Scheme 2).
Recombinant human liver GK1 was expressed in E. coli as a glutathione S-transferase fusion protein (GST-GK) [Liang et al, 1995] and was purified by chromatography over a glutathione-Sepharose 4B affinity column using the procedure provided by the manufacturer (Amersham Pharmacia Biotech, Piscataway, N.J.).
The assay was conducted at 30° C. in a flat bottom 96-well tissue culture plate from Costar (Cambridge, Mass.) with a final incubation volume of 120 μL. The incubation reaction contained the following: 25 mM Hepes buffer (pH 7.1), 25 mM KCl, 5 mM D-glucose, 1 mM ATP, 1.8 mM NAD, 2 mM MgCl2, 1 μM sorbitol-6-phosphate, 1 mM dithiothreitol, test drug or 10% dimethylsulfoxide, ˜7 units/ml G6PDH, and GK (see below). All organic reagents were >98% pure and were from Boehringer Mannheim with the exceptions of D-glucose and Hepes which were from Sigma Chemical Co, St Louis, Mo. Test compounds were dissolved in dimethylsulfoxide and were added to the incubation reaction minus GST-GK in a volume of 12 μL to yield a final dimethylsulfoxide concentration of 10%. This mix was pre-incubated in the temperature controlled chamber of a SPECTRAmax 250 microplate spectrophotometer (Molecular Devices Corporation, Sunnyvale, Calif.) for 10 minutes to allow temperature equilibrium and then the reaction was started by the addition of 20 μL GST-GK.
After addition of enzyme, the increase in optical density (OD) at 340 nm was monitored spectrophotometrically to determine the rate of change (OD340 per min). The GK activity (OD340/min) in control wells (10% dimethylsulfoxide minus GK activators) was compared with the activity in wells containing test GK activators, and the concentration of activator that produced a 50% increase in the activity of GK, i.e., the SC1.5, was calculated.

**Q.** O=C(Nc1nccs1)C(CC1CCCC1)N1C(=O)Cc2cc(Cl)ccc21 (stereo not drawn) [Example 98, 2-(5-Chloro-2-oxo-2,3-dihydro-indol-1-yl)-3-cyclopentyl-N-thiazol-2-yl-propionamide] was tested. Which “SC1.5 (concentration of activator that produced a 50% increase in the activity of GK)” value did it give?
**A.** 1.22 µM

**Q.** Which “SC1.5 (concentration of activator that produced a 50% increase in the activity of GK)” value does the source give for CC(C)(O)Cn1ccc(NC(=O)C(CC2CCCC2)N2C(=O)Cc3ccccc32)n1 (stereo not drawn) [Example 59, 3-Cyclopentyl-N-[1-(2-hydroxy-2-methyl-propyl)-1H-pyrazol-3-yl]-2-(2-oxo-2,3-dihydro-indol-1-yl)-propionamide] here?
**A.** 3.87 µM

**Q.** With CC(C)CC(C(=O)Nc1ccccn1)N1C(=O)Cc2cc(Br)ccc21 (stereo not drawn) [Example 74, 2-(5-Bromo-2-oxo-2,3-dihydro-indol-1-yl)-4-methyl-pentanoic acid pyridin-2-ylamide] as the compound, how does the “SC1.5 (concentration of activator that produced a 50% increase in the activity of GK)” value read?
**A.** 3.24 µM

**Q.** How did the “SC1.5 (concentration of activator that produced a 50% increase in the activity of GK)” value turn out when CC(C)CC(C(=O)Nc1ccn(C)n1)N1C(=O)Cc2cc(Br)ccc21 (stereo not drawn) [Example 73, 2-(5-Bromo-2-oxo-2,3-dihydro-indol-1-yl)-4-methyl-pentanoic acid (1-methyl-1H-pyrazol-3-yl)-amide] was run?
**A.** 17.96 µM

**Q.** How did the “SC1.5 (concentration of activator that produced a 50% increase in the activity of GK)” value turn out when COc1ccc2c(c1)CC(=O)N2C(CC1CCCC1)C(=O)Nc1cnccn1 (stereo not drawn) [Example 52, 3-Cyclopentyl-2-(5-methoxy-2-oxo-2,3-dihydro-indol-1-yl)-N-pyrazin-2-yl-propionamide] was run?
**A.** 4.76 µM

**Q.** Cc1ccc2c(c1)C(=O)C(=O)N2C(CC1CCCC1)C(=O)Nc1nccs1 (stereo not drawn) [Example 79, 3-Cyclopentyl-2-(5-methyl-2,3-dioxo-2,3-dihydro-indol-1-yl)-N-thiazol-2-yl-propionamide] was tested. Which “SC1.5 (concentration of activator that produced a 50% increase in the activity of GK)” value did it give?
**A.** 16.22 µM

**Q.** How did the “SC1.5 (concentration of activator that produced a 50% increase in the activity of GK)” value turn out when CC(C)CC(C(=O)Nc1ccccn1)N1C(=O)Cc2ccc(Cl)cc21 (stereo not drawn) [Example 114, 2-(6-Chloro-2-oxo-2,3-dihydro-indol-1-yl)-4-methyl-pentanoic acid pyridin-2-ylamide] was run?
**A.** 0.91 µM

**Q.** With O=C1C(=O)N(C(CC2CCCC2)C(=O)Nc2cnccn2)c2ccc(Br)cc21 (stereo not drawn) [Example 60, 2-(5-Bromo-2,3-dioxo-2,3-dihydro-indol-1-yl)-3-cyclopentyl-N-pyrazin-2-yl-propionamide] as the compound, how does the “SC1.5 (concentration of activator that produced a 50% increase in the activity of GK)” value read?
**A.** 5.48 µM

**Q.** For COc1ccc2c(c1)CC(=O)N2C(CC1CCCC1)C(=O)Nc1nccs1 (stereo not drawn) [Example 51, 3-Cyclopentyl-2-(5-methoxy-2-oxo-2,3-dihydro-indol-1-yl)-N-thiazol-2-yl-propionamide], which “SC1.5 (concentration of activator that produced a 50% increase in the activity of GK)” value is on record?
**A.** 3.6 µM

**Q.** How did the “SC1.5 (concentration of activator that produced a 50% increase in the activity of GK)” value turn out when CC(C)CC(C(=O)Nc1ccccn1)N1C(=O)Cc2c(Cl)cccc21 (stereo not drawn) [Example 26, 2-(4-Chloro-2-oxo-2,3-dihydro-indol-1-yl)-4-methyl-pentanoic acid pyridin-2-ylamide] was run?
**A.** 6.77 µM

**Q.** Which “SC1.5 (concentration of activator that produced a 50% increase in the activity of GK)” value does the source give for O=C1C(=O)N(C(CC2CCCC2)C(=O)Nc2ccccn2)c2ccccc21 (stereo not drawn) [Example 6, 3-Cyclopentyl-2-(2,3-dioxo-2,3-dihydro-indol-1-yl)-N-pyridin-2-yl-propionamide] here?
**A.** 5.19 µM

**Q.** Which “SC1.5 (concentration of activator that produced a 50% increase in the activity of GK)” value does the source give for Cn1ccc(NC(=O)C(CC2CCCC2)N2C(=O)Cc3ccccc32)n1 (stereo not drawn) [Example 7, 3-Cyclopentyl-N-(1-methyl-1H-pyrazol-3-yl)-2-(2-oxo-2,3-dihydro-indol-1-yl)-propionamide] here?
**A.** 17.55 µM

**Q.** Which “SC1.5 (concentration of activator that produced a 50% increase in the activity of GK)” value does the source give for O=C(Nc1cnccn1)C(CC1CCCC1)N1C(=O)Cc2c(Cl)cccc21 (stereo not drawn) [Example 24, 2-(4-Chloro-2-oxo-2,3-dihydro-indol-1-yl)-3-cyclopentyl-N-pyrazin-2-yl-propionamide] here?
**A.** 2.66 µM

**Q.** With Cn1ccc(NC(=O)C(CC2CCCC2)N2C(=O)Cc3ccc(Cl)cc32)n1 (stereo not drawn) [Example 124, 2-(6-Chloro-2-oxo-2,3-dihydro-indol-1-yl)-3-cyclopentyl-N-(1-methyl-1H-pyrazol-3-yl)-propionamide] as the compound, how does the “SC1.5 (concentration of activator that produced a 50% increase in the activity of GK)” value read?
**A.** 1.1 µM

**Q.** For O=C1C(=O)N(C(CC2CCCC2)C(=O)Nc2ccccn2)c2cc(Cl)ccc21 (stereo not drawn) [Example 118, 2-(6-chloro-2,3-dioxo-2,3-dihydro-indol-1-yl)-3-cyclopentyl-N-pyridin-2-yl-propionamide], which “SC1.5 (concentration of activator that produced a 50% increase in the activity of GK)” value is on record?
**A.** 0.23 µM

**Q.** O=C(Nc1nccs1)C(CC1CCCC1)N1C(=O)Cc2ccc(Br)cc21 (stereo not drawn) [Example 134, 2-(6-Bromo-2-oxo-2,3-dihydro-indol-1-yl)-3-cyclopentyl-N-thiazol-2-yl-propionamide] was tested. Which “SC1.5 (concentration of activator that produced a 50% increase in the activity of GK)” value did it give?
**A.** 0.19 µM

**Q.** For O=C1C(=O)N(C(CC2CCCC2)C(=O)Nc2cnccn2)c2ccc(OC(F)(F)F)cc21 (stereo not drawn) [Example 29, 3-Cyclopentyl-2-(2,3-dioxo-5-trifluoromethoxy-2,3-dihydro-indol-1-yl)-N-pyrazin-2-yl-propionamide], which “SC1.5 (concentration of activator that produced a 50% increase in the activity of GK)” value is on record?
**A.** 1.5 µM

**Q.** Which “SC1.5 (concentration of activator that produced a 50% increase in the activity of GK)” value does the source give for O=C1C(=O)N(C(CC2CCCC2)C(=O)Nc2ccccn2)c2ccc(OC(F)(F)F)cc21 (stereo not drawn) [Example 30, 3-Cyclopentyl-2-(2,3-dioxo-5-trifluoromethoxy-2,3-dihydro-indol-1-yl)-N-pyridin-2-yl-propionamide] here?
**A.** 0.33 µM

**Q.** For COc1ccc2c(c1)C(=O)C(=O)N2C(CC1CCCC1)C(=O)Nc1ccn(C)n1 (stereo not drawn) [Example 47, 3-Cyclopentyl-2-(5-methoxy-2,3-dioxo-2,3-dihydro-indol-1-yl)-N-(1-methyl-1H-pyrazol-3-yl)-propionamide], which “SC1.5 (concentration of activator that produced a 50% increase in the activity of GK)” value is on record?
**A.** 23.88 µM

**Q.** For Cc1ccc2c(c1)CC(=O)N2C(CC1CCCC1)C(=O)Nc1nccs1 (stereo not drawn) [Example 82, 3-Cyclopentyl-2-(5-methyl-2-oxo-2,3-dihydro-indol-1-yl)-N-thiazol-2-yl-propionamide], which “SC1.5 (concentration of activator that produced a 50% increase in the activity of GK)” value is on record?
**A.** 2.45 µM

same assay, conditions: @ 30 uM; 5 mM D-glucose, 30° C.

**Q.** How did the fold induction at 30 µM turn out when CC(C)CC(C(=O)Nc1ccn(C)n1)N1C(=O)Cc2cc(Cl)ccc21 (stereo not drawn) [Example 107, 2-(5-Chloro-2-oxo-2,3-dihydro-indol-1-yl)-4-methyl-pentanoic acid (1-methyl-1H-pyrazol-3-yl)-amide] was run?
**A.** 1.22

**Q.** How did the fold induction at 30 µM turn out when CC(C)CC(C(=O)Nc1nccs1)N1C(=O)C(=O)c2cc(Cl)ccc21 (stereo not drawn) [Example 101, 2-(5-Chloro-2,3-dioxo-2,3-dihydro-indol-1-yl)-4-methyl-pentanoic acid thiazol-2-ylamide] was run?
**A.** 1.4

**Q.** Cc1ccc2c(c1)C(=O)C(=O)N2C(CC(C)C)C(=O)Nc1ccn(C)n1 (stereo not drawn) [Example 86, 4-Methyl-2-(5-methyl-2,3-dioxo-2,3-dihydro-indol-1-yl)-pentanoic acid (1-methyl-1H-pyrazol-3-yl)-amide] was tested. Which fold induction at 30 µM did it give?
**A.** 1.44

**Q.** How did the fold induction at 30 µM turn out when CC(C)CC(C(=O)Nc1ccccn1)N1C(=O)C(=O)c2ccccc21 (stereo not drawn) [Example 9, 2-(2,3-Dioxo-2,3-dihydro-indol-1-yl)-4-methyl-pentanoic acid pyridin-2-ylamide] was run?
**A.** 1.33
